This assay concerns the target c-fms (Homo sapiens, UniProt P07333). In words: c-fms autophosphorylation, fluorescence polarization competition immunoassay. Format: biochemical. The conditions noted are these: 10 nM c-fms, 1 mM ATP; for inhibition at 0.1 µM: test concentration 0.1 μM, read-out: c-fms Autophosphorylation Percent Inhibition, % @ 0.1 μM; for inhibition at 1 µM: test concentration 1 μM, read-out: c-fms Autophosphorylation Percent Inhibition, % @ 1 μM; for IC50: average of three independent measurements. As to the method: The assay buffer used was 100 mM 4-(2-hydroxyethyl)piperazine 1-ethanesulfonic acid (HEPES), pH 7.5, 1 mM 1,4-dithio-DL-threitol (DTT), 0.01% (v/v) Tween-20. Compounds were diluted in assay buffer containing 4% dimethylsulfoxide (DMSO) just prior to the assay. To each well, 5 μL of compound were added followed by the addition of 3 μL of a mix containing 33 nM c-fms and 16.7 mM MgCl2 (Sigma) in assay buffer. The kinase reaction was initiated by adding 2 μL of 5 mM ATP (Sigma) in assay buffer. The final concentrations in the assay were 10 nM c-fms, 1 mM ATP, 5 mM MgCl2, 2% DMSO. Control reactions were ran in each plate: in positive and negative control wells, assay buffer (made 4% in DMSO) was substituted for the compound; in addition, positive control wells received 1.2 μL of 50 mM ethylenediaminetetraaceticacid (EDTA).
The plates were incubated at room temperature for 45 min. At the end of the incubation, the reaction was quenched with 1.2 μL of 50 mM EDTA (EDTA was not added to the positive control wells at this point; see above). Following a 5-min incubation, each well received 10 μL of a 1:1:3 mixture of anti-phosphotyrosine antibody, 10X, PTK green tracer, 10X (vortexed), FP dilution buffer, respectively (all from PanVera, cat. # P2837). The plate was covered, incubated for 30 min at room temperature and the fluorescence polarization was read on the Analyst. The instrument settings were: 485 nm excitation filter; 530 nm emission filter; Z height: middle of well; G factor: 0.93.
The percent inhibition is shown in Table 1 at the indicated test concentration. The IC50 shown in Table 2 are averages of three independent measurements.

Chain of c-fms (P07333 20-972): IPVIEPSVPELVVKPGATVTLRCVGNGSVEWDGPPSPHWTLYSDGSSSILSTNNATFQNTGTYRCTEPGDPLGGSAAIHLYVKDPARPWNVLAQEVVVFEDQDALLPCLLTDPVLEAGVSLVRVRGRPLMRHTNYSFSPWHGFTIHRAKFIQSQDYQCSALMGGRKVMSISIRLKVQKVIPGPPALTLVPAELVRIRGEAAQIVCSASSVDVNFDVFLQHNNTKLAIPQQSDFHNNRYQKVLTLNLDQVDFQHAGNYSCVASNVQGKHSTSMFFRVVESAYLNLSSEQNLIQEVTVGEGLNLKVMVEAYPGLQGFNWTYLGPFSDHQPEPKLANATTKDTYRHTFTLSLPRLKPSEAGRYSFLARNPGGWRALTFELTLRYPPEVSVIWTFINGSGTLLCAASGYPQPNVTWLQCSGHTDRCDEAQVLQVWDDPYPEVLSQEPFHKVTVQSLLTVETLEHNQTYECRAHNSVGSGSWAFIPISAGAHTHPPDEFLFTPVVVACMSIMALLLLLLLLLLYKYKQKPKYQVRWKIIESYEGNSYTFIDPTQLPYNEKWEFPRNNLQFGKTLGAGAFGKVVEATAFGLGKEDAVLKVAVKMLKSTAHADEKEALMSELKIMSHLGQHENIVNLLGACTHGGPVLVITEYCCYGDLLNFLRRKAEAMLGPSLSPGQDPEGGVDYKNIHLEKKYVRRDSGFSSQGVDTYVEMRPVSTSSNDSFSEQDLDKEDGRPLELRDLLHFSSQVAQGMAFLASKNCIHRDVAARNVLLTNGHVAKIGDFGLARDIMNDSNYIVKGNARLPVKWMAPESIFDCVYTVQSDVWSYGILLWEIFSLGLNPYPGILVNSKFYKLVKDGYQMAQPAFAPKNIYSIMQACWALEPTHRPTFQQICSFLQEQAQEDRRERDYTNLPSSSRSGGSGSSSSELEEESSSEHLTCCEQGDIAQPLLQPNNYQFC

Turning to `CONC(=O)c1cn(C2CCCCC2)c2nc(NCCN3CCCC3)ncc2c1=O` [Cpd 48, 8-Cyclohexyl-5-oxo-2-(2-pyrrolidin-1-yl-ethylamino)-5,8-dihydro-pyrido[2,3-d]pyrimidine-6-carboxylic acid methoxy-amide], the inhibition at 0.1 µM was found to be 0% and the inhibition at 1 µM amounted to 18%.
For `CONC(=O)c1cn(C2CCCCC2)c2nc(NCCN3CCCCC3)ncc2c1=O` [Cpd 50, 8-Cyclohexyl-5-oxo-2-(2-piperidin-1-yl-ethylamino)-5,8-dihydro-pyrido[2,3-d]pyrimidine-6-carboxylic acid methoxy-amide], the inhibition at 0.1 µM is 3% and the inhibition at 1 µM came to 20%.
For the compound `CONC(=O)c1cn(-c2ccc3c(c2)CCC3)c2nc(NCCCN3CCCC3=O)ncc2c1=O` [Cpd 22, 8-Indan-5-yl-5-oxo-2-[3-(2-oxo-pyrrolidin-1-yl)-propylamino]-5,8-dihydro-pyrido[2,3-d]pyrimidine-6-carboxylic acid methoxy-amide], the inhibition at 0.1 µM is 40% and the inhibition at 1 µM amounted to 72%.
For `CONC(=O)c1cn(C2CCCCC2)c2nc(NCCCn3ccnc3)ncc2c1=O` [Cpd 41, 8-Cyclohexyl-2-(3-imidazol-1-yl-propylamino)-5-oxo-5,8-dihydro-pyrido[2,3-d]pyrimidine-6-carboxylic acid methoxy-amide], the inhibition at 0.1 µM was found to be 22% and the inhibition at 1 µM turned out to be 45%.
In the case of `CNC(=O)c1cn(C2CCCCC2)c2nc(NCCc3ccc(OC)cc3)ncc2c1=O` [Cpd 58, 8-Cyclohexyl-2-[2-(4-methoxy-phenyl)-ethylamino]-5-oxo-5,8-dihydro-pyrido[2,3-d]pyrimidine-6-carboxylic acid methylamide], the inhibition at 0.1 µM stood at 13% and the inhibition at 1 µM came out at 26%.
Take `NC(=O)c1cn(C2CCCCC2)c2nc(NCCCN3CCCC3)ncc2c1=O` [Cpd 34, 8-Cyclohexyl-5-oxo-2-(3-pyrrolidin-1-yl-propylamino)-5,8-dihydro-pyrido[2,3-d]pyrimidine-6-carboxylic acid amide]: the inhibition at 0.1 µM was found to be 31% and the inhibition at 1 µM was determined as 64%.
In the case of `NC(=O)c1cn(-c2ccc3c(c2)CCC3)c2nc(NCCCN3CCCC3)ncc2c1=O` [Cpd 9, 8-Indan-5-yl-5-oxo-2-(3-pyrrolidin-1-yl-propylamino)-5,8-dihydro-pyrido[2,3-d]pyrimidine-6-carboxylic acid amide], the inhibition at 0.1 µM turned out to be 16% and the inhibition at 1 µM turned out to be 45%.
Turning to `CONC(=O)c1cn(-c2ccc3c(c2)CCC3)c2nc(NCCN3CCCCC3)ncc2c1=O` [Cpd 25, 8-Indan-5-yl-5-oxo-2-(2-piperidin-1-yl-ethylamino)-5,8-dihydro-pyrido[2,3-d]pyrimidine-6-carboxylic acid methoxy-amide], the inhibition at 0.1 µM was determined as 6% and the inhibition at 1 µM was determined as 30%.
As to `CNC(=O)c1cn(-c2ccc3c(c2)CCC3)c2nc(NCCCN3CCN(C)CC3)ncc2c1=O` [Cpd 15, 8-Indan-5-yl-2-[3-(4-methyl-piperazin-1-yl)-propylamino]-5-oxo-5,8-dihydro-pyrido[2,3-d]pyrimidine-6-carboxylic acid methylamide], the inhibition at 0.1 µM came out at 8% and the inhibition at 1 µM was found to be 29%.
Regarding `CONC(=O)c1cn(C2CCCCC2)c2nc(NCc3cc(OC)cc(OC)c3)ncc2c1=O` [Cpd 52, 8-Cyclohexyl-2-(3,5-dimethoxy-benzylamino)-5-oxo-5,8-dihydro-pyrido[2,3-d]pyrimidine-6-carboxylic acid methoxy-amide], the inhibition at 0.1 µM turned out to be 23% and the inhibition at 1 µM was 53%.
For `CNC(=O)c1cn(C2CCCCC2)c2nc(NCCN3CCCCC3)ncc2c1=O` [Cpd 59, 8-Cyclohexyl-5-oxo-2-(2-piperidin-1-yl-ethylamino)-5,8-dihydro-pyrido[2,3-d]pyrimidine-6-carboxylic acid methylamide], the inhibition at 0.1 µM was 5% and the inhibition at 1 µM came out at 11%.
Regarding `COCCCNc1ncc2c(=O)c(C(=O)NOC)cn(-c3ccc4c(c3)CCC4)c2n1` [Cpd 21, 8-Indan-5-yl-2-(3-methoxy-propylamino)-5-oxo-5,8-dihydro-pyrido[2,3-d]pyrimidine-6-carboxylic acid methoxy-amide], the inhibition at 0.1 µM amounted to 50% and the inhibition at 1 µM was found to be 82%.
As to `CONC(=O)c1cn(-c2ccc3c(c2)CCC3)c2nc(NCCCn3ccnc3)ncc2c1=O` [Cpd 19, 2-(3-Imidazol-1-yl-propylamino)-8-indan-5-yl-5-oxo-5,8-dihydro-pyrido[2,3-d]pyrimidine-6-carboxylic acid methoxy-amide], the inhibition at 0.1 µM came to 36% and the inhibition at 1 µM was found to be 70%.
Take `COc1cc(CNc2ncc3c(=O)c(C(N)=O)cn(-c4ccc5c(c4)CCC5)c3n2)cc(OC)c1` [Cpd 11, 2-(3,5-Dimethoxy-benzylamino)-8-indan-5-yl-5-oxo-5,8-dihydro-pyrido[2,3-d]pyrimidine-6-carboxylic acid amide]: the inhibition at 0.1 µM was 0% and the inhibition at 1 µM was 50%.
Regarding `COc1cc(CNc2ncc3c(=O)c(C(N)=O)cn(C4CCCCC4)c3n2)cc(OC)c1` [Cpd 40, 8-Cyclohexyl-2-(3,5-dimethoxy-benzylamino)-5-oxo-5,8-dihydro-pyrido[2,3-d]pyrimidine-6-carboxylic acid amide], the inhibition at 0.1 µM was determined as 10% and the inhibition at 1 µM was found to be 47%.
`NC(=O)c1cn(-c2ccc3c(c2)CCC3)c2nc(NCCCN3CCOCC3)ncc2c1=O` [Cpd 5] returned an IC50 of 2600 nM.
On to `CONC(=O)c1cn(C2CCCCC2)c2nc(NCCCN3CCOCC3)ncc2c1=O` [Cpd 43, 8-Cyclohexyl-2-(3-morpholin-4-yl-propylamino)-5-oxo-5,8-dihydro-pyrido[2,3-d]pyrimidine-6-carboxylic acid methoxy-amide], for which the inhibition at 0.1 µM was found to be 32% and the inhibition at 1 µM turned out to be 60%.
As to `CNC(=O)c1cn(-c2ccc3c(c2)CCC3)c2nc(NCCc3ccc(OC)cc3)ncc2c1=O` [Cpd 17, 8-Indan-5-yl-2-[2-(4-methoxy-phenyl)-ethylamino]-5-oxo-5,8-dihydro-pyrido[2,3-d]pyrimidine-6-carboxylic acid methylamide], the inhibition at 0.1 µM worked out at 15% and the inhibition at 1 µM is 36%.
In the same order, the values of `COCCNc1ncc2c(=O)c(C(N)=O)cn(-c3ccc4c(c3)CCC4)c2n1` [Cpd 10, 8-Indan-5-yl-2-(2-methoxy-ethylamino)-5-oxo-5,8-dihydro-pyrido[2,3-d]pyrimidine-6-carboxylic acid amide] are 16% and 41%.
Take `COCCNc1ncc2c(=O)c(C(=O)NOC)cn(C3CCCCC3)c2n1` [Cpd 47, 8-Cyclohexyl-2-(2-methoxy-ethylamino)-5-oxo-5,8-dihydro-pyrido[2,3-d]pyrimidine-6-carboxylic acid methoxy-amide]: the inhibition at 0.1 µM was 31% and the inhibition at 1 µM is 57%.
Take `NC(=O)c1cn(C2CCCCC2)c2nc(NCCCN3CCOCC3)ncc2c1=O` [Cpd 30, 8-Cyclohexyl-2-(3-morpholin-4-yl-propylamino)-5-oxo-5,8-dihydro-pyrido[2,3-d]pyrimidine-6-carboxylic acid amide]: the inhibition at 0.1 µM was determined as 24% and the inhibition at 1 µM is 68%.
As to `CNC(=O)c1cn(-c2ccc3c(c2)CCC3)c2nc(NCCCN(C)C)ncc2c1=O` [Cpd 12, 2-(3-Dimethylamino-propylamino)-8-indan-5-yl-5-oxo-5,8-dihydro-pyrido[2,3-d]pyrimidine-6-carboxylic acid methylamide], the inhibition at 0.1 µM turned out to be 2% and the inhibition at 1 µM amounted to 13%.
Turning to `NC(=O)c1cn(-c2ccc3c(c2)CCC3)c2nc(NCCN3CCOCC3)ncc2c1=O` [Cpd 4, 8-Indan-5-yl-2-(2-morpholin-4-yl-ethylamino)-5-oxo-5,8-dihydro-pyrido[2,3-d]pyrimidine-6-carboxylic acid amide], the IC50 came out at 3300 nM.
Take `CONC(=O)c1cn(C2CCCCC2)c2nc(NCCCN(C)C)ncc2c1=O` [Cpd 42, 8-Cyclohexyl-2-(3-dimethylamino-propylamino)-5-oxo-5,8-dihydro-pyrido[2,3-d]pyrimidine-6-carboxylic acid methoxy-amide]: the inhibition at 0.1 µM was determined as 17% and the inhibition at 1 µM was found to be 40%.
As for `CNC(=O)c1cn(C2CCCCC2)c2nc(NCCCN(C)C)ncc2c1=O` [Cpd 54, 8-Cyclohexyl-2-(3-dimethylamino-propylamino)-5-oxo-5,8-dihydro-pyrido[2,3-d]pyrimidine-6-carboxylic acid methylamide], the inhibition at 0.1 µM was 6% and the inhibition at 1 µM turned out to be 26%.

The record behind these values is US7728003B2, “5-oxo-5,8-dihydro-pyrido-pyrimidines as inhibitors of c-fms kinase” (Janssen Pharmaceutica N.V., priority 2005, dated 2010).
